Assay results reported in US7256286B2, “Bryostatin analogues, synthetic methods and uses” (The Board of Trustees of the Leland Stanford Junior …, priority 1999, dated 2007).

Key:
[1] = system: P388 cell line; experiment: P388 murine lymphocytic leukemia cell assay; format: cell-based
Method: Cells from a P388 cell line (CellGate, Inc., Sunnyvale, Calif.) are grown in RPMI 1640 cell medium containing fetal calf serum (10%), L-glutamine, penicillin, streptomycin and are split twice weekly. All compounds are first diluted with DMSO. Later serial dilutions are done with a phosphate buffer solution (HYQ DPBS modified phosphate buffered saline). All dilutions are done in glass vials and the final DMSO concentration is always below 0.5% by volume. Final two-fold dilutions are done in a 96 well plate using cell media so that each well contains 50 μL. All compounds are assayed in quadruplicate over 12 concentrations. Cell concentration is measured using a hemacytometer and the final cell concentration is adjusted to 1×10^4 cells/mL with cell medium. The resulting solution of cells (50 μL) is then added to each well and the plates are incubated for 5 days in a 37° C., 5% CO2, humidified incubator (Sanyo CO2 incubator). MTT solution (3-[4,5-dimethylthiazol-2-yl]-2,5-diphenyltetrazolium bromide, 10 μL) is then added to each well and the plates are re-incubated under identical conditions for 2 h. To each well is then added acidified isopropanol (150 μL of i-PrOH solution containing 0.05 N HCl) and mixed thoroughly. The plates are then scanned at 595 nm and the absorbances are read (Wallac Victor 1420 Multilabel Counter). The resulting data is then analyzed to determine an ED50 value using the Prism software package (GraphPad).

[2] = system: HL-60(TB); experiment: cells; format: cell-based, human
[3] = system: MOLT-4; experiment: NCI human cancer cell line growth inhibition: MOLT-4; format: cell-based; conditions: MOLT-4, Leukemia
[4] = system: EKVX; experiment: NCI human cancer cell line growth inhibition: EKVX; format: cell-based; conditions: NSC Lung
[5] = system: HOP-92; experiment: NCI human cancer cell line growth inhibition: HOP-92; format: cell-based; conditions: HOP-92, NSC Lung
[6] = system: COLO 205; experiment: NCI human cancer cell line growth inhibition: COLO 205; format: cell-based; conditions: COLO 205, Colon
[7] = system: HCC-2998; experiment: NCI human cancer cell line growth inhibition: HCC-2998; format: cell-based; conditions: HCC-2998, Colon
[8] = system: HCT-116; experiment: NCI human cancer cell line growth inhibition: HCT-116; format: cell-based; conditions: HCT-116, Colon
[9] = system: HCT-15; experiment: NCI human cancer cell line growth inhibition: HCT-15; format: cell-based; conditions: Homo sapiens; HCT-15, Colon
[10] = system: SW-620; experiment: NCI human cancer cell line growth inhibition: SW-620; format: cell-based; conditions: SW-620, Colon
[11] = system: SNB-75; experiment: NCI human cancer cell line growth inhibition: SNB-75; format: cell-based; conditions: SNB-75, CNS
[12] = system: DU-145; experiment: NCI human cancer cell line growth inhibition: DU-145; format: cell-based; conditions: DU-145, Prostate
[13] = system: MI4; experiment: NCI human cancer cell line growth inhibition: MI4; format: cell-based; conditions: MI4, Melanoma
[14] = system: SK-MEL-5; experiment: NCI human cancer cell line growth inhibition: SK-MEL-5; format: cell-based; conditions: SK-MEL-5, Melanoma
[15] = system: UACC-257; experiment: NCI human cancer cell line growth inhibition: UACC-257; format: cell-based; conditions: UACC-257, Melanoma
[16] = system: UACC-62; experiment: NCI human cancer cell line growth inhibition: UACC-62; format: cell-based; conditions: UACC-62, Melanoma
[17] = system: IGROVI; experiment: NCI human cancer cell line growth inhibition: IGROVI; format: cell-based; conditions: Ovarian
[18] = system: OVCAR-3; experiment: NCI human cancer cell line growth inhibition: OVCAR-3; format: cell-based; conditions: OVCAR-3, Ovarian
[19] = system: OVCAR-4; experiment: NCI human cancer cell line growth inhibition: OVCAR-4; format: cell-based; conditions: OVCAR-4, Ovarian
[20] = system: OVCAR-5; experiment: NCI human cancer cell line growth inhibition: OVCAR-5; format: cell-based; conditions: OVCAR-5, Ovarian
[21] = system: SK-OV-3; experiment: NCI human cancer cell line growth inhibition: SK-OV-3; format: cell-based; conditions: SK-OV-3, Ovarian
[22] = system: A498; experiment: NCI human cancer cell line growth inhibition: A498; format: cell-based; conditions: A498, Renal
[23] = system: ACHN; experiment: NCI human cancer cell line growth inhibition: ACHN; format: cell-based; conditions: Renal
[24] = system: SN12C; experiment: NCI human cancer cell line growth inhibition: SN12C; format: cell-based; conditions: Renal
[25] = system: TK-10; experiment: NCI human cancer cell line growth inhibition: TK-10; format: cell-based; conditions: TK-10, Renal
[26] = system: UO-31; experiment: NCI human cancer cell line growth inhibition: UO-31; format: cell-based; conditions: UO-31, Renal
[27] = system: MCF7; experiment: NCI human cancer cell line growth inhibition: MCF7; format: cell-based; conditions: MCF7, Breast
[28] = system: MDA-MB-231/ATCC; experiment: NCI human cancer cell line growth inhibition: MDA-MB-231/ATCC; format: cell-based; conditions: Breast
[29] = system: BT-549; experiment: NCI human cancer cell line growth inhibition: BT-549; format: cell-based; conditions: BT-549, Breast
[30] = system: T-47D; experiment: NCI human cancer cell line growth inhibition: T-47D; format: cell-based; conditions: Breast

Which “activity in P388 assay compared with other analogues” value ([1]; 702.1 vs corresponding C26 methyl-containing analogue, 48, 49 among C20 ester analogues) does the source give for `CCCCCCCC(=O)O[C@H]1/C(=C/C(=O)OC)C[C@H]2C[C@H](CO)OC(=O)C[C@H](O)C[C@@H]3CCCC(CC4CCO[C@H](/C=C/C(C)(C)[C@]1(O)O2)O4)O3` [Formula IIa (702.1)] here?
The value was “significantly higher activity”.

What about the EC50 ([1]; Mus musculus, P388, 120 h, 5 days incubation, MTT, read-out: P388 Assay ED50) of the same compound?
Its EC50 is 0.017 µM.

And the “Difference (GI50 desmethyl vs Bryo-1)” value [2]?
Its value is −0.14.

And the GI50 ([2]; Homo sapiens, HL-60, read-out: Growth inhibition (GI50))?
The GI50 was 1.45 µM.

What about the GI50 ([3]; Homo sapiens) of the same compound?
The GI50 was less than 0.01 µM.

And the “Difference (GI50 desmethyl vs Bryo-1)” value [3]?
The value was −2.50.

What about the “more active than bryostatin-1 by” value [3] of the same compound?
The value was “more than 2 orders of magnitude”.

And the GI50 ([4]; Homo sapiens)?
The GI50 was 2.63 µM.

What about the “Difference (GI50 desmethyl vs Bryo-1)” value [4] of the same compound?
The value was −0.28.

What about the “Difference (GI50 desmethyl vs Bryo-1)” value [5] of the same compound?
The value was 0.63.

And the GI50 ([5]; Homo sapiens)?
The GI50 was 21.4 µM.

What about the “Difference (GI50 desmethyl vs Bryo-1)” value [6] of the same compound?
The value was −1.68.

What about the GI50 ([6]; Homo sapiens) of the same compound?
The GI50 was 0.0832 µM.

What about the “Difference (GI50 desmethyl vs Bryo-1)” value [7] of the same compound?
The value was −2.24.

And the “more active than bryostatin-1 by” value [7]?
Its value is “more than 2 orders of magnitude”.

What about the GI50 ([7]; Homo sapiens) of the same compound?
Its GI50 is 0.0288 µM.

And the “Difference (GI50 desmethyl vs Bryo-1)” value [8]?
The value was −0.02.

And the GI50 ([8]; Homo sapiens)?
The GI50 was 4.79 µM.

And the GI50 [9]?
Its GI50 is 17.4 µM.

And the GI50 ([10]; Homo sapiens)?
Its GI50 is 7.59 µM.

And the “Difference (GI50 desmethyl vs Bryo-1)” value [10]?
The value was 0.38.

And the GI50 ([11]; Homo sapiens)?
Its GI50 is 10.7 µM.

And the “Difference (GI50 desmethyl vs Bryo-1)” value [11]?
The value was 0.53.

What about the “Difference (GI50 desmethyl vs Bryo-1)” value [12] of the same compound?
Its value is −0.02.

And the GI50 ([12]; Homo sapiens)?
The GI50 was 9.55 µM.

What about the GI50 ([13]; Homo sapiens) of the same compound?
Its GI50 is 5.5 µM.

What about the “Difference (GI50 desmethyl vs Bryo-1)” value [13] of the same compound?
Its value is −0.26.

What about the GI50 ([14]; Homo sapiens) of the same compound?
Its GI50 is 0.372 µM.

And the “Difference (GI50 desmethyl vs Bryo-1)” value [14]?
Its value is −0.73.

And the GI50 ([15]; Homo sapiens)?
The GI50 was 7.41 µM.

What about the “Difference (GI50 desmethyl vs Bryo-1)” value [15] of the same compound?
Its value is −0.03.

And the GI50 ([16]; Homo sapiens)?
Its GI50 is 7.76 µM.

What about the “Difference (GI50 desmethyl vs Bryo-1)” value [16] of the same compound?
The value was 0.19.

What about the GI50 ([17]; Homo sapiens) of the same compound?
Its GI50 is 13.2 µM.

And the “Difference (GI50 desmethyl vs Bryo-1)” value [17]?
Its value is 0.42.

And the GI50 ([18]; Homo sapiens)?
Its GI50 is 14.8 µM.

What about the “Difference (GI50 desmethyl vs Bryo-1)” value [18] of the same compound?
The value was 0.27.

And the GI50 ([19]; Homo sapiens)?
Its GI50 is 7.08 µM.

And the “Difference (GI50 desmethyl vs Bryo-1)” value [19]?
The value was 0.35.

What about the GI50 ([20]; Homo sapiens) of the same compound?
Its GI50 is 5.25 µM.

What about the “Difference (GI50 desmethyl vs Bryo-1)” value [20] of the same compound?
The value was −0.28.

What about the GI50 ([21]; Homo sapiens) of the same compound?
The GI50 was 50.1 µM.

And the “Difference (GI50 desmethyl vs Bryo-1)” value [21]?
The value was 0.80.

What about the “Difference (GI50 desmethyl vs Bryo-1)” value [22] of the same compound?
The value was −1.38.

And the GI50 ([22]; Homo sapiens)?
The GI50 was 0.417 µM.

What about the GI50 ([23]; Homo sapiens) of the same compound?
Its GI50 is 1.15 µM.

And the “Difference (GI50 desmethyl vs Bryo-1)” value [23]?
The value was −0.44.

And the GI50 ([24]; Homo sapiens)?
The GI50 was 2.57 µM.

What about the “Difference (GI50 desmethyl vs Bryo-1)” value [24] of the same compound?
Its value is −0.49.

And the GI50 ([25]; Homo sapiens)?
The GI50 was 0.0933 µM.

What about the “Difference (GI50 desmethyl vs Bryo-1)” value [25] of the same compound?
Its value is −2.03.

And the “more active than bryostatin-1 by” value [25]?
Its value is “more than 2 orders of magnitude”.

What about the GI50 ([26]; Homo sapiens) of the same compound?
Its GI50 is 14.1 µM.

What about the “Difference (GI50 desmethyl vs Bryo-1)” value [26] of the same compound?
Its value is 0.75.

What about the GI50 ([27]; Homo sapiens) of the same compound?
The GI50 was 3.98 µM.

What about the “Difference (GI50 desmethyl vs Bryo-1)” value [27] of the same compound?
The value was −0.20.

And the “Difference (GI50 desmethyl vs Bryo-1)” value [28]?
Its value is −0.49.

And the GI50 ([28]; Homo sapiens)?
Its GI50 is 2.04 µM.

What about the “Difference (GI50 desmethyl vs Bryo-1)” value [29] of the same compound?
Its value is 0.39.

And the GI50 ([29]; Homo sapiens)?
Its GI50 is 19.5 µM.

What about the “Difference (GI50 desmethyl vs Bryo-1)” value [30] of the same compound?
The value was 0.18.

And the GI50 ([30]; Homo sapiens, T47D)?
Its GI50 is 9.55 µM.
